Data as given in ChEMBL document CHEMBL4431344, “Synthesis of potent and broad genotypically active NS5B HCV non-nucleoside inhibitors binding to the thumb domain allosteric site 2 of the viral polymerase” (Bioorg Med Chem Lett, 2016).
pEC50, pIC50: −log10 of the molar value.

How the values were obtained:
Hepatitis C virus = assay: Antiviral activity against HCV assessed as inhibition of viral RNA replication in replicon cells by luciferase reporter gene assay; type: functional, Hepacivirus hominis
[1] = target: RNA-directed RNA polymerase (Hepacivirus hominis, UniProt O39930); assay: Inhibition of HCV NS5B RNA dependent RNA polymerase
Genome polyprotein [2] = target: Genome polyprotein (Hepatitis C virus genotype 1b (strain HC-J4) (HCV), UniProt O92972); assay: Inhibition of HCV genotype 1b J4 NS5B RNA dependent RNA polymerase; design: species or system Hepatitis C virus isolate HC-J4
Genome polyprotein [3] = target: Genome polyprotein (Hepatitis C virus genotype 1b (isolate Con1) (HCV), UniProt Q9WMX2); assay: Inhibition of HCV genotype 1b Con1 NS5B RNA dependent RNA polymerase
Sequence of Genome polyprotein (Hepatitis C virus genotype 1b (isolate Con1) (HCV), UniProt Q9WMX2) (Q9WMX2 2420-3010 limits assumed): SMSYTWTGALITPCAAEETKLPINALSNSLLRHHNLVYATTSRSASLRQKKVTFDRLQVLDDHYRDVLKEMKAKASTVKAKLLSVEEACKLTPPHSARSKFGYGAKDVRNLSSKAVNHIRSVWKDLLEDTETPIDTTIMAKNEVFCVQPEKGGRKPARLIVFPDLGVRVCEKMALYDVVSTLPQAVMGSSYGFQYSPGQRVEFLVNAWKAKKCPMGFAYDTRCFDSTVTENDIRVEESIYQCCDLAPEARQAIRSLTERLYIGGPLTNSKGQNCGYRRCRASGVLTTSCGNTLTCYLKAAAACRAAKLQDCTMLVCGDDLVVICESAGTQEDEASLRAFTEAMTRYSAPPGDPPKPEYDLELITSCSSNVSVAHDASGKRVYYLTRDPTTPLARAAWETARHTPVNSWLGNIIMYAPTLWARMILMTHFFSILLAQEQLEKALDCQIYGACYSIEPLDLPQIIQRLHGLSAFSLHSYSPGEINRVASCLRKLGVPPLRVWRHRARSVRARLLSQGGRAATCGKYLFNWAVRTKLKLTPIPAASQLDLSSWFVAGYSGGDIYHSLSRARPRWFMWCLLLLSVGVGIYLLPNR

Sequence of Genome polyprotein (Hepatitis C virus genotype 1b (strain HC-J4) (HCV), UniProt O92972) (O92972 2420-3010 limits assumed): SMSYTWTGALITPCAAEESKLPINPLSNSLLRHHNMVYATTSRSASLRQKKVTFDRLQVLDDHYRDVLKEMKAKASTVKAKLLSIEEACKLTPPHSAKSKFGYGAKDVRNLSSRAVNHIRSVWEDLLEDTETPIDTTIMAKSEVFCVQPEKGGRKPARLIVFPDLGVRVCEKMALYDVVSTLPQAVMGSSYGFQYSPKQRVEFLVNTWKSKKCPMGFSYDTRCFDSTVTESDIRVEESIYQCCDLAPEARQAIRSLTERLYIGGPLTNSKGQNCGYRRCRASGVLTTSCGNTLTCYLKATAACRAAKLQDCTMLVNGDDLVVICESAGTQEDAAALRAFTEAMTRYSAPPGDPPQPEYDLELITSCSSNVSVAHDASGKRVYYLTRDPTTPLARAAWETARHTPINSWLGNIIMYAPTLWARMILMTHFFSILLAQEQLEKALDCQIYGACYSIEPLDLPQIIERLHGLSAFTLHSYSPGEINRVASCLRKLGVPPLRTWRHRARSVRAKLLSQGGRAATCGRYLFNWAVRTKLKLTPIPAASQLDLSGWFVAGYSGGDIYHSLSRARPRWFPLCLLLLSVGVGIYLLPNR
Sequence of RNA-directed RNA polymerase (O39930 whole entry): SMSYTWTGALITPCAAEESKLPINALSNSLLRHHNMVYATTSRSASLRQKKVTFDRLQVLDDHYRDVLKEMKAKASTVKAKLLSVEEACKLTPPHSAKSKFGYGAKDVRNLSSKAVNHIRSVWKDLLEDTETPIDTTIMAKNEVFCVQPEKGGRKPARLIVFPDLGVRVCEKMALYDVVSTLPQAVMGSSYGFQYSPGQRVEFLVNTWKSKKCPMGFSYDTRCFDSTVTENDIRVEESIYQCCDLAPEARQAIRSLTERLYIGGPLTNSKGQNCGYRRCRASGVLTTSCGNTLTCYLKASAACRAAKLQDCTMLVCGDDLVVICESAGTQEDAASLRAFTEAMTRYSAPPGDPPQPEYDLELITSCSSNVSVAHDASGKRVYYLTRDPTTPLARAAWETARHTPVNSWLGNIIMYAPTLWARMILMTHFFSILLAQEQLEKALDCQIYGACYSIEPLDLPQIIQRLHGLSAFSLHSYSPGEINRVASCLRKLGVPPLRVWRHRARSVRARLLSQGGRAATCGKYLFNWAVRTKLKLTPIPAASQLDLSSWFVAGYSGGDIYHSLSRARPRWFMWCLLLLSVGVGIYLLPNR

| Structure (SMILES) | pEC50 (Hepatitis C virus) | pIC50 [1] | pIC50 (Genome polyprotein [2]) | pIC50 (Genome polyprotein [3]) |
| --- | --- | --- | --- | --- |
| Cc1ccc(S(=O)(=O)Nc2cc(-c3ccccc3)sc2C(=O)O)c(C)c1 | 5.30 | 6.00 | – | – |
| Cc1ccc(P(=O)(Nc2cc(-c3ccc(Cl)cc3)sc2C(=O)O)OCC2CCOCC2)c(C)c1 (stereo not given) | 6.49 | – | 6.81 | – |
| COP(=O)(Nc1cc(-c2ccc(Cl)cc2)sc1C(=O)O)c1ccc(Cl)cc1C (stereo not given) | 5.81 | – | 7.59 | – |
| CCOP(=O)(Nc1cc(-c2ccc(Cl)cc2)sc1C(=O)O)C1CCC(C)CC1 (stereo not given) | < 5.08 | – | 5.43 | – |
| Cc1ccc(P(=O)(Nc2cc(-c3ccc(Cl)cc3)sc2C(=O)O)OC(C)C)c(C)c1 (stereo not given) | 5.64 | – | 6.72 | – |
| COP(=O)(Nc1cc(-c2ccc(-c3cc4nc(C)ccn4n3)cc2)sc1C(=O)O)c1ccc(C)cc1C (stereo not given) | 9.15 | – | 8.11 | – |
| Cc1ccc(P(=O)(Nc2cc(-c3ccc(Cl)cc3)sc2C(=O)O)OCCc2ccc(F)cc2)c(C)c1 (stereo not given) | 5.62 | – | 6.50 | – |
| CCOP(=O)(Nc1cc(-c2ccc(Cl)cc2)sc1C(=O)O)c1ccc(Cl)cc1C (stereo not given) | 5.53 | – | 7.09 | – |
| COP(=O)(Nc1cc(-c2ccc(-c3cc4ncccc4o3)cc2)sc1C(=O)O)c1ccc(C)cc1C (stereo not given) | 9.15 | – | 8.27 | – |
| CCCCOP(=O)(Nc1cc(-c2ccc(Cl)cc2)sc1C(=O)O)c1ccc(C)cc1C (stereo not given) | 5.57 | – | 6.77 | – |
| COP(=O)(Nc1cc(-c2ccc(-c3cc4ccccc4o3)cc2)sc1C(=O)O)c1ccc(C)cc1C (stereo not given) | 8.77 | – | 8.25 | – |
| COP(=O)(Nc1cc(-c2ccc(Cl)cc2)sc1C(=O)O)c1ccc(C)cc1C (stereo not given) | 6.18 | – | 7.68 | – |
| Cc1ccc(P(=O)(Nc2cc(-c3ccc(Cl)cc3)sc2C(=O)O)OCCC(C)C)c(C)c1 (stereo not given) | 5.45 | – | 6.53 | – |
| COP(=O)(Nc1cc(-c2ccc(Cl)cc2)sc1C(=O)O)c1ccc(Cl)cc1F (stereo not given) | 5.47 | – | 6.53 | – |
| COP(=O)(Nc1cc(-c2ccc(-c3cc4ccccc4s3)cc2)sc1C(=O)O)c1ccc(C)cc1C (stereo not given) | 7.63 | – | 7.79 | – |
| COP(=O)(Nc1cc(-c2ccc(-c3cc4nc(C)cc(N)n4n3)cc2)sc1C(=O)O)c1ccc(C)cc1C (stereo not given) | 9.30 | – | 8.29 | 8.05 |
| Cc1ccc(P(=O)(Nc2cc(-c3ccc(Cl)cc3)sc2C(=O)O)OCC(C)C)c(C)c1 (stereo not given) | 5.52 | – | 6.65 | – |
| COP(=O)(c1ccc(C)cc1C)N(c1cc(-c2ccc(F)cc2)sc1C(=O)O)C(C)C (stereo not given) | 5.38 | – | 6.29 | – |
| Cc1ccc(P(=O)(Nc2cc(-c3ccc(Cl)cc3)sc2C(=O)O)OCc2cc3ccccc3o2)c(C)c1 (stereo not given) | 5.57 | – | 6.37 | – |
| CCOP(=O)(Nc1cc(-c2ccccc2)sc1C(=O)O)C1CCC(C)CC1 (stereo not given) | < 5.08 | – | < 5.00 | – |
| C=CP(=O)(Nc1cc(-c2ccc(Cl)cc2)sc1C(=O)O)OCC (stereo not given) | < 5.08 | – | < 2.00 | – |
| COP(=O)(Nc1cc(-c2ccc(C#CC3CC3)cc2)sc1C(=O)O)c1ccc(C)cc1C (stereo not given) | 5.61 | – | 7.34 | – |
| CCCOP(=O)(Nc1cc(-c2ccc(Cl)cc2)sc1C(=O)O)c1ccc(C)cc1C (stereo not given) | 5.45 | – | 6.83 | – |
| COP(=O)(Nc1cc(-c2ccc(C#Cc3ccsc3)cc2)sc1C(=O)O)c1ccc(C)cc1C (stereo not given) | 8.32 | – | 8.04 | – |
| CCOP(=O)(Nc1cc(-c2ccc(Cl)cc2)sc1C(=O)O)C1CC=C(C)CC1 (stereo not given) | < 5.08 | – | 5.95 | – |
| COP(=O)(Nc1cc(-c2ccc(F)cc2)sc1C(=O)O)c1ccc(C)cc1C (stereo not given) | 5.67 | – | 6.93 | – |
| COP(=O)(c1ccc(C)cc1C)N(C)c1cc(-c2ccc(Cl)cc2)sc1C(=O)O (stereo not given) | 5.55 | – | 7.23 | – |
| COCCOP(=O)(Nc1cc(-c2ccc(Cl)cc2)sc1C(=O)O)c1ccc(C)cc1C (stereo not given) | 5.58 | – | 6.87 | – |
| CC(C)N(c1cc(-c2ccccc2)sc1C(=O)O)C(=O)[C@H]1CC[C@H](C)CC1 | 6.22 to 6.43 | 5.82 | 7.46 | – |
